The source of these data is US20180104174A1, “Cosmetic Use of a Diospyros Mespiliformis Extract Alone or in Combination with Other Active Agents Such as an Anti-Pollutant” (Laboratoires Clarins, priority 2015, published 2018).

What all share (assay type): cell-based
Experiment [1] concerns mitochondrial superoxide dismutase (SOD) in normal human keratinocytes. In words: Mitoread RedOx c/mtSOD: mitochondrial SOD activity after H2O2 stress. An excerpt: (§1) The objective of this study is the characterization of the antioxidant property of a Sanicula europea extract by evaluating the parameters of the redox state after induction of an oxidative stress by hydrogen peroxide (H2O2) in primary cultures of normal human keratinocytes. The Mitosafe® technology makes it possible to explore the antioxidant effects of active agents at the mitochondrial level. This technology consists of the integrated study of mitochondrial functions in living cells by multiplexed measurement of parameters such as cell viability, production of cell and mitochondrial oxygen free radicals, evaluation of antioxidant defenses. These tests in 96-well plates are carried out on primary cultures of human epidermal cells. The Mitoread RedOx c/mtSOD methodology consists of the quantification of the cell and mitochondrial SOD activities. The cells were pre-incubated at 37° C. for 60 minutes with the reference antioxidant, resveratrol at 1 μM, or the active ingredients at the predetermined concentrations. The cells were treated with the reference pro-oxidizing compound, hydrogen peroxide H2O2 at 100 μM for 60 minutes. Immediately after, the cell extracts were prepared and stored at −80° C. The enzymatic activities were measured by means of a fluorometric and enzymatic method using a microplate reader (Varioskan-Thermo). All the extracts were tested in triplicate.

Experiment [2] relates to cell superoxide dismutase (SOD) in normal human keratinocytes. In words: Mitoread RedOx c/mtSOD: cell SOD activity after H2O2 stress.
Excerpt: as §1

In experiment [3] the test system is total glutathione (GSH+GSSG) in normal human keratinocytes. In words: Mitoread RedOx GSHtot: total glutathione level after H2O2 stress.
Excerpt: as §1, with “RedOx GSHtot” for “RedOx c/mtSOD”, “the total glutathione level (GSH+GSSG).” for “the cell and mitochondrial SOD activities.”, “resveratrol” for “resveratrol at”, “the extract” for “the active ingredients”, “100 μM,” for “100 μM”, “The total glutathione level was” for “The enzymatic activities were”

Experiment [4] has as its system mitochondrial reactive oxygen species (ROSs) in normal human keratinocytes. The experiment in a line: Mitoread AntiOx mtROS: mitochondrial ROS production after H2O2 stress. The source says:
The objective of this study is the characterization of the antioxidant property of a Sanicula europea extract by evaluating the parameters of the redox state after induction of an oxidative stress by hydrogen peroxide (H2O2) in primary cultures of normal human keratinocytes. The Mitosafe® technology makes it possible to explore the antioxidant effects of active agents at the mitochondrial level. This technology consists of the integrated study of mitochondrial functions in living cells by multiplexed measurement of parameters such as cell viability, production of cell and mitochondrial oxygen free radicals, evaluation of antioxidant defenses. These tests in 96-well plates are carried out on primary cultures of human epidermal cells. The Mitoread AntiOx mtROS methodology consists of the quantification of the antioxidant activity of the ingredients toward mitochondrial reactive oxygen species (ROSs) using a fluorescent label. The cells were pre-incubated at 37° C. for 60 minutes with the reference antioxidant, resveratrol 1 μM, or the active ingredients at the predetermined concentrations. Next, they were incubated with the fluorescent probe at 37° C. for 30 minutes, as a replacement for the antioxidant compounds. […] The mitochrondrial ROS production was immediately recorded for 60 minutes. The fluorescence is recorded every five minutes using a microplate reader (Varioskan-Thermo). […]

Experiment [5] deals with cell reactive oxygen species (ROSs) in normal human keratinocytes. The experiment in a line: Mitoread AntiOx cROS: cell ROS production after H2O2 stress. An excerpt: The objective of this study is the characterization of the antioxidant property of a Sanicula europea extract by evaluating the parameters of the redox state after induction of an oxidative stress by hydrogen peroxide (H2O2) in primary cultures of normal human keratinocytes. The Mitosafe® technology makes it possible to explore the antioxidant effects of active agents at the mitochondrial level. This technology consists of the integrated study of mitochondrial functions in living cells by multiplexed measurement of parameters such as cell viability, production of cell and mitochondrial oxygen free radicals, evaluation of antioxidant defenses. These tests in 96-well plates are carried out on primary cultures of human epidermal cells. The Mitoread AntiOx cROS methodology consists of the quantification of the antioxidant activity of the ingredients toward cell reactive oxygen species (ROSs) using a fluorescent label. […] After washing, the cells were co-incubated with the antioxidant reference compound, […] Trolox, or the extracts, at concentrations determined to be non-cytotoxic, in the presence of the pro-oxidizing reference compound, 100 μM H2O2. The cell ROS production was immediately recorded for 60 minutes. The fluorescence is recorded every five minutes using a microplate reader (Varioskan-Thermo). […]

Regarding `OO` [H2O2, hydrogen peroxide], in experiment [1] (H2O2 100 μM, p=0.006), the “increase in the mitochondrial SOD activity compared with the nontreated cells” value is given as approximately 211%. Also, the “decrease in the cell SOD activity compared with the nontreated cells” value in experiment [2] (H2O2 100 μM, non-significant trend, p=0.075) is approximately 30%. In experiment [3] (H2O2 at 100 μM, p=0.044), the “increase in the total glutathione level compared with the nontreated cells” value was approximately 2.9 times. Besides, the “increase in mitochondrial production of ROSs relative to the nontreated cells (factor)” value in experiment [4] (100 μM H2O2) is 9.4. The “increase of the cell ROS production level compared with the nontreated cells” value in experiment [5] (100 μM H2O2) was determined as 7.4 times.
For the compound `Cc1c(C)c2c(c(C)c1O)CCC(C)(C(=O)O)O2` (stereo not shown) [Trolox], the “reduction of the overproduction of cell ROSs induced by H2O2” value in experiment [5] (Trolox at 10 μm, p<0.001) is given as 1.7 times.
For `Oc1ccc(C=Cc2cc(O)cc(O)c2)cc1` [resveratrol], in experiment [1] (1 μM, p=0.021), the “reduction of the activity of the mitochondrial SOD induced by H2O2” value was approximately 66%. The “increase in the cell SOD activity in response to H2O2 exposure” value in experiment [2] (1 μM, p=0.036) is on record as approximately 40%. For the same compound, the “reduction of the total glutathione level after treatment with H2O2” value in experiment [3] (pre-incubation at 1 μM, p=0.006) worked out at 94%. Also, the “reduction of the overproduction of mitochondrial ROSs induced by H2O2” value in experiment [4] (1 μM, p=0.013) is recorded as approximately 1.3 times.
